# Measured values as given in publication PMC13128454, “Mutant p53 protein accumulation is selectively targetable by proximity-inducing drugs” (Nature Chemical Biology, 2025).
# Several values for one entry are separate records, joined by “and”; a condition that tells them apart may be missing. Equal values may be shown once. Read-outs that look alike come from different tables or passages of the source.
# Columns and labels:
# [1] = tested on: WEE1; parameters: method as in PMID 19887545; details: cell-free; read-out: IC50 for cell-free WEE1 inhibition; cited from earlier work
# [2] = tested on: cancer cell lines across DepMap; parameters: method as in DepMap; details: antiproliferative; PRISM OncRef; ref DepMap; read-out: median IC50 across DepMap; cited from earlier work
# [3] = tested on: Calu-1 cells stably expressing Halo–p53-R273H (FL)–mCherry versus parental Calu-1 cells; experiment: flow-cytometry growth competition; assay type: cell-based; details: sheet S2E
# Experimental: (§1) Cells with and without a fluorescent marker (for example, Halo–p53–mCherry) were mixed and the resulting solution was plated in six-well plates or 10-cm dishes at low density; compound was added at varying concentrations. After reaching confluence, cells were passaged and retreated with compound if needed. Otherwise, cells were trypsinized, washed and resuspended in complete growth medium in 96-well plates or tubes for flow cytometry. Untreated cell mixtures were used to establish gates separating the fluorophore^+/− populations. Analysis was conducted on a CytoFLEX LX flow cytometer.
# [4] = tested on: Halo–p53-Y220C ΔTAD–mCherry 293T cells versus parental 293T cells; experiment: flow-cytometry growth competition; assay type: cell-based; details: for activity / difference in cell survival in competition: 8-day competition; for normalized_mCherry_percentage: Y220C, day 8, normalized to DMSO; for mCherry_percent: 8 days, untreated 39.76; for Viability competition, AVERAGE: average of 3 replicates; for EC50: growth competition analyzed on day 10, n = 3, read-out: Competition EC50; for IC50 / Emax: viability competition (sheet 5B); for Emax: lowest average of sheet 5A
# Experimental: as §1
# [5] = tested on: Halo–p53-R273H (FL)–mCherry 293T cells versus parental 293T cells; experiment: flow-cytometry growth competition; assay type: cell-based
# Experimental: as §1
# [6] = molecular target: T1, p53-Y220C–PLK1 ternary complex (Homo sapiens, UniProt P04637+P53350, M133L/N239Y/N268D/V203A/Y220C); experiment: NanoBiT ternary complex assay in cotransfected 293T cells; assay type: cell-based
# T1 construct: NLS–LgBiT–p53-Y220C (DBD) and mEGFP–PLK1–SmBiT; expressed in transfected cells; host or cells: 293T cells, transient cotransfection
# Text: After 1 day, the cells were passaged into 384-well plates and treated with varying concentrations of compound.
# [7] = 24 h, n = 4, read-out: NanoBiT EC50
molecule,measurement,setting,value
C=CCn1c(=O)c2cnc(Nc3ccc(N4CCN(C)CC4)cc3)nc2n1-c1cccc(C(C)(C)O)n1 [adavosertib],IC50,[1],0.0052 µM
same,IC50,[2],0.348 µM
CC[C@@H]1C(=O)N(C)c2cnc(Nc3ccc(C(=O)NCCOCCOCCC(=O)NCCOCCOCCCCCCCl)cc3OC)nc2N1C1CCCC1 [HLDA-131],mCherry_percent,[3]; 1 nM,83.77%
same,mCherry_percent,[3]; 10 nM,55.02%
same,mCherry_percent,[3]; 100 nM,4.8%
same,mCherry_percent,[3]; 1 uM,3.52%
C=CC(=O)n1c2ccccc2c2cc(C(=O)NCc3cn(CCOCCOCCOCCOCCNC(=O)c4ccc(Nc5ncc6c(n5)N(C5CCCC5)[C@H](CC)C(=O)N6C)c(OC)c4)nn3)ccc21 [KG5-PEG4-BI2536],activity / difference in cell survival in competition,[4],did not observe any difference in cell survival
same,normalized_mCherry_percentage,[4]; 1 nM,98.99%
same,normalized_mCherry_percentage,[4]; 10 nM,99.96%
same,normalized_mCherry_percentage,[4]; 100 nM,100.2%
same,normalized_mCherry_percentage,[4]; 1 uM,99.83%
O=C(/C=C\n1cnc(-c2cc(C(F)(F)F)cc(C(F)(F)F)c2)n1)NNc1cnccn1 [selinexor],activity / difference in cell survival in competition,[4],did not observe any activity
same,normalized_mCherry_percentage,[4]; 1 nM,98.56%
same,normalized_mCherry_percentage,[4]; 10 nM,98.63%
same,normalized_mCherry_percentage,[4]; 100 nM,103.2%
same,normalized_mCherry_percentage,[4]; 1 uM,99.86%
C=CCn1c(=O)c2cnc(Nc3ccc(N4CCN(C(=O)CCOCCOCCC(=O)NCCOCCOCCCCCCCl)CC4)cc3)nc2n1-c1cccc(C(C)(C)O)n1 [Halo-PEG2-adavosertib],EC50,"[5]; Homo sapiens, HEK-293T, Halo–p53-R273H (FL)–mCherry 293T cells as printed, Extended Data Fig. 2f",0.041 µM
same,selective inhibition of proliferation in competition assay,"[5]; doses between 100 nM and 1 μM, cells as printed",selectively inhibited the proliferation
same,mCherry_percent,[4]; 100 nM,10.55%
same,mCherry_percent,[4]; 1 uM,4.24%
same,mCherry_percent,[4]; 10 uM,26.57%
CC[C@@H]1C(=O)N(C)c2cnc(Nc3ccc(C(=O)NCCC(=O)N4CCC(Nc5cccc6c5cc(C#CCNc5ccc(S(C)(=O)=O)cc5OC)n6CC(F)(F)F)CC4)cc3OC)nc2N1C1CCCC1 [PMV6-C3-BI2536],"Viability competition, AVERAGE",[4]; Concentration (nM) 10,0.6993
same,"Viability competition, Replicate 1-3","[4]; Concentration (nM) 10, listed as C3",0.706 and 0.7024 and 0.6895
same,"Viability competition, AVERAGE",[4]; Concentration (nM) 100,0.1737
same,"Viability competition, Replicate 1-3","[4]; Concentration (nM) 100, listed as C3",0.1753 and 0.1712 and 0.1746
same,"Viability competition, AVERAGE",[4]; Concentration (nM) 500,0.1322
same,"Viability competition, Replicate 1-3","[4]; Concentration (nM) 500, listed as C3",0.1474 and 0.1221 and 0.127
same,"Viability competition, AVERAGE",[4]; Concentration (nM) 1000,0.1085
same,"Viability competition, Replicate 1-3","[4]; Concentration (nM) 1000, listed as C3",0.1425 and 0.0972 and 0.0859
same,"Viability competition, AVERAGE",[4]; Concentration (nM) 2000,0.0794
same,"Viability competition, Replicate 1-3","[4]; Concentration (nM) 2000, listed as C3",0.0894 and 0.0623 and 0.0865
same,"Viability competition, AVERAGE",[4]; Concentration (nM) 5000,0.1321
same,"Viability competition, Replicate 1-3","[4]; Concentration (nM) 5000, listed as C3",0.1277 and 0.1154 and 0.1531
same,potency versus p53-01 in the competition assay,[4]; day 10,over 1.5 orders of magnitude
same,EC50,[4],0.025 µM
same,IC50,[4],0.0253 µM
same,Emax,[4],0.0794
same,EC50,[6]; [7],0.41 µM
same,NanoBiT mean_norm,[6]; Concentration 19.5312,1.06
same,NanoBiT mean_norm,[6]; Concentration 39.0625,1.117
same,NanoBiT mean_norm,[6]; Concentration 78.125,1.1621
same,NanoBiT mean_norm,[6]; Concentration 156.25,1.171
same,NanoBiT mean_norm,[6]; Concentration 312.5,1.264
same,NanoBiT mean_norm,[6]; Concentration 625,1.76
same,NanoBiT mean_norm,[6]; Concentration 1250,1.765
same,NanoBiT mean_norm,[6]; Concentration 2500,1.801
same,NanoBiT mean_norm,[6]; Concentration 5000,1.856
same,NanoBiT mean_norm,[6]; Concentration 10000,1.853
same,Max_effect,[6]; sheet 5C,1.856
same,EC50,"[6]; sheet 5C, read-out: EC50",0.406 µM
CC[C@@H]1C(=O)N(C)c2cnc(Nc3ccc(C(=O)NCCOCCOCCOCCOCCC(=O)N4CCC(Nc5cccc6c5cc(C#CCNc5ccc(S(C)(=O)=O)cc5OC)n6CC(F)(F)F)CC4)cc3OC)nc2N1C1CCCC1 [PEG4 (p53-01)],"Viability competition, Replicate 1-3",[4]; Concentration (nM) 10,0.6959 and 0.6663 and 0.6621
same,"Viability competition, AVERAGE",[4]; Concentration (nM) 10,0.6748
same,"Viability competition, Replicate 1-3",[4]; Concentration (nM) 100,0.7132 and 0.7004 and 0.6708
same,"Viability competition, AVERAGE",[4]; Concentration (nM) 100,0.6948
same,"Viability competition, Replicate 1-3",[4]; Concentration (nM) 500,0.6679 and 0.6445 and 0.6361
same,"Viability competition, AVERAGE",[4]; Concentration (nM) 500,0.6495
same,"Viability competition, Replicate 1-3",[4]; Concentration (nM) 1000,0.309 and 0.295 and 0.2813
same,"Viability competition, AVERAGE",[4]; Concentration (nM) 1000,0.2951
same,"Viability competition, Replicate 1-3",[4]; Concentration (nM) 2000,0.1194 and 0.1119 and 0.1123
same,"Viability competition, AVERAGE",[4]; Concentration (nM) 2000,0.1145
same,"Viability competition, Replicate 1-3",[4]; Concentration (nM) 5000,0.1698 and 0.1509 and 0.1508
same,"Viability competition, AVERAGE",[4]; Concentration (nM) 5000,0.1572
same,IC50,[4],0.851 µM
same,Emax,[4],0.1145
PEG6,"Viability competition, Replicate 1-3",[4]; Concentration (nM) 10,0.5239 and 0.6471 and 0.659
same,"Viability competition, AVERAGE",[4]; Concentration (nM) 10,0.61
same,"Viability competition, Replicate 1-3",[4]; Concentration (nM) 100,0.5384 and 0.6799 and 0.6767
same,"Viability competition, AVERAGE",[4]; Concentration (nM) 100,0.6317
same,"Viability competition, Replicate 1-3",[4]; Concentration (nM) 500,0.4819 and 0.6302 and 0.6328
same,"Viability competition, AVERAGE",[4]; Concentration (nM) 500,0.5816
same,"Viability competition, Replicate 1-3",[4]; Concentration (nM) 1000,0.2653 and 0.295 and 0.3011
same,"Viability competition, AVERAGE",[4]; Concentration (nM) 1000,0.2871
same,"Viability competition, Replicate 1-3",[4]; Concentration (nM) 2000,0.064 and 0.0676 and 0.0785
same,"Viability competition, AVERAGE",[4]; Concentration (nM) 2000,0.07003
same,"Viability competition, Replicate 1-3",[4]; Concentration (nM) 5000,0.1113 and 0.1194 and 0.102
same,"Viability competition, AVERAGE",[4]; Concentration (nM) 5000,0.1109
same,EC50,[4],0.9 µM
same,IC50,[4],0.899 µM
same,Emax,[4],0.07003
same,EC50,[6]; [7],3.68 µM
same,NanoBiT mean_norm,[6]; Concentration 19.5312,1.005
same,NanoBiT mean_norm,[6]; Concentration 39.0625,0.9853
same,NanoBiT mean_norm,[6]; Concentration 78.125,1.029
same,NanoBiT mean_norm,[6]; Concentration 156.25,1.026
same,NanoBiT mean_norm,[6]; Concentration 312.5,1.029
same,NanoBiT mean_norm,[6]; Concentration 625,1.011
same,NanoBiT mean_norm,[6]; Concentration 1250,1.186
same,NanoBiT mean_norm,[6]; Concentration 2500,1.25
same,NanoBiT mean_norm,[6]; Concentration 5000,1.542
same,NanoBiT mean_norm,[6]; Concentration 10000,1.6853
same,Max_effect,[6]; sheet 5C,1.6853
same,EC50,"[6]; sheet 5C, read-out: EC50",3.68 µM
AP1867-C8-BI2536,activity / difference in cell survival in competition,[4],did not observe any activity
same,normalized_mCherry_percentage,[4]; 1 nM,97.6%
same,normalized_mCherry_percentage,[4]; 10 nM,98.26%
same,normalized_mCherry_percentage,[4]; 100 nM,98.72%
same,normalized_mCherry_percentage,[4]; 1 uM,93.37%
